Test results: US20240391931A1 (Bristol-Myers Squibb Company, priority 2021, published 2024)

Assays:
[1] = target: T1, HER2 wildtype (WT) protein (Homo sapiens, UniProt P04626); assay: HER2 signaling (pHER2 Tyr1248/total HER2 MSD) in N87 cells; assay type: cell-based; details: 1.5 hr compound, 1% FBS
T1 construct: BT474 and N87 cell lines which endogenously overexpress the HER2 wildtype (WT) protein; endogenous in cells; host or cells: BT474, N87
Method: (§1) In addition to the engineered cell lines, the following cell lines were used: BT474 (human breast carcinoma), N87 (human gastric carcinoma), NCI-H1781 (human lung adenocarcinoma), and A431 (human epidermoid carcinoma); all cell lines were obtained from the American Type Culture Collection (ATCC, Manassas, VA). NCI-H1781 were grown in complete RPMI 1640 (Life Technologies, Carlsbad, CA) supplemented with 15% fetal bovine serum (FBS, Life Technologies, Carlsbad, CA) and 1% Penicillin-Streptomycin (P/S, Life Technologies, Carlsbad, CA). N87 cells were grown in complete RPMI 1640 supplemented with 10% FBS and 1% P/S. BT474 and A431 cells were grown in DMEM (Life Technologies, Carlsbad, CA) supplemented with 10% FBS and 1% P/S. All cells were maintained and propagated in a humidified 5% CO2 incubator at 37° C.
(§2) HER2 signaling was assessed in BT474 and N87 cell lines which endogenously overexpress the HER2 wildtype (WT) protein, in NCI-H1781 cells which endogenously expresses a HER2 mutant protein containing a VC insertion in the kinase domain (HER2VC or G776delinsVC), and in engineered cell lines transduced to express the Her2 mutant protein containing the YVMA insertion (Hek293-HER2YVMA and BEAS2B-HER2YVMA).
(§3) BT474, N87, and NCI-H1781 were plated in 96-well tissue-culture treated plates (Corning Costar, Sigma-Aldrich) in full media and incubated overnight. Hek293-HER2YVMA and BEAS2B-HER2YVMA cells were plated in 96-well poly-D-lysine treated plates (BD Bioscience, San Jose, CA). For treatment with test compounds, the media was replaced with corresponding low serum media (1% FBS) containing test compound at 1.1, 0.37, 0.12, 0.041, 0.014, 0.005, 0.0014, 0.0005 μM or DMSO control (0.1%). Cells were incubated with compound for 1.5 hr at 37° C. After compound treatment, the media was removed and cells were lysed for 30 min on ice in complete MSD lysis buffer (prepared using MSD base lysis buffer (Meso-Scale Discovery) supplemented with cOmplete, EDTA-free Protease inhibitor cocktail (Roche), Phosphatase Inhibitor Cocktails 2 and 3 (Sigma-Aldrich), and 1 mM PMSF (Sigma-Aldrich)). Lysates were stored at −70° C. until further analysis.
(§4) HER2 signaling was evaluated using phospho (Tyr1248)/total ErbB2 whole cell lysate MSD plates (Meso-Scale Discovery, Gaithersburg, MD). The phospho HER2 signal was normalized to total HER2 for each sample; results are reported as % DMSO control. The normalized data was fitted using a sigmoidal curve analysis program (Graph Pad Prism version 6) with variable Hill slope to determine EC50 values.
(§5) The HER2 signaling results are provided in Table 4, under columns titled “BT474-pHER2 EC50”, “N87-pHER2 EC50”, and “NCI-H1781-pHER2 EC50”. Hek293-HER2YVMA ins fall under the heading “HEKYVMA-pHER2 EC50”, Ba/F3 HER2YVMA fall under the heading “Ba/F3 YVMA-pHER2 EC50” and BEAS2B-HER2YVMA fall under the heading “BEAS2B YVMA-pHER2 EC50”.

BT474 cells = assay: Cellular proliferation in BT474 cells (CellTiter Glo); assay type: cell-based, human; details: 120 h, redosed after 72 h
Method: as §1
(§6) Cell proliferation in adherent cells was investigated in two HER2 amplified cell lines (BT474, N87), and a HER2VC expressing cell line (NCI-H1781). BT474, NCI-H1781, and N87 were plated in their appropriate growth media supplemented with either 10% FBS (BT474, N87) or 15% FBS (NCI-H1781) and 1% P/S in 96-well white clear-bottom tissue culture plates (Costar, Sigma-Aldrich). The starting cell densities were 3500, 5500, and 5000 cells for BT474, NCI-H1781, and N87 cells, respectively. An 8-point standard curve with varying cell densities (starting at 50000 cells and serially diluting down 2-fold) was prepared for each cell line and read 6 h after plating. Cells were allowed to attach overnight prior to compound treatment. Compound solutions were prepared by serially diluting test compounds in DMSO (Sigma-Aldrich), then diluting 500× in their corresponding serum free media. Cells were treated by adding a 1:1 volume of test compound to a final concentration of […], 0.004, 0.0014, or 0.0005 μM, in 0.1% DMSO and 5% FBS (for BT474 and N87) or 7.5% FBS (NCI-H1781). In BT474 and NCI-H1781, cell media was replaced and cells were redosed with fresh test compound solutions after 72 h. Viability was determined by CellTiter Glo (Promega, Madison, WI) after 72 h for N87 cells, and after 120 h for BT474 and […] cells. The results were converted to cell numbers using a standard curve; growth inhibition (GI50 values) were determined by Graph Pad Prism. […] The results are provided in Table 4, under columns titled “BT474-GI50”, “N87-GI50”, and “NCI-H1781-GI50”.

N87 cells = assay: Cellular proliferation in N87 cells (CellTiter Glo); assay type: cell-based, human; details: 72 h
Method: as §1, §6

HER2VC (G776delinsVC) = target: T2, HER2VC (G776delinsVC) (Homo sapiens, UniProt P04626, G776C/INS775V); assay: HER2 signaling (pHER2) in NCI-H1781 cells; assay type: cell-based; details: 1.5 hr compound, 1% FBS
T2 construct: NCI-H1781 cells which endogenously expresses a HER2 mutant protein; endogenous in cells; host or cells: NCI-H1781
T2 sequence (P04626 with tags, fused parts or gaps INS775V/G776C): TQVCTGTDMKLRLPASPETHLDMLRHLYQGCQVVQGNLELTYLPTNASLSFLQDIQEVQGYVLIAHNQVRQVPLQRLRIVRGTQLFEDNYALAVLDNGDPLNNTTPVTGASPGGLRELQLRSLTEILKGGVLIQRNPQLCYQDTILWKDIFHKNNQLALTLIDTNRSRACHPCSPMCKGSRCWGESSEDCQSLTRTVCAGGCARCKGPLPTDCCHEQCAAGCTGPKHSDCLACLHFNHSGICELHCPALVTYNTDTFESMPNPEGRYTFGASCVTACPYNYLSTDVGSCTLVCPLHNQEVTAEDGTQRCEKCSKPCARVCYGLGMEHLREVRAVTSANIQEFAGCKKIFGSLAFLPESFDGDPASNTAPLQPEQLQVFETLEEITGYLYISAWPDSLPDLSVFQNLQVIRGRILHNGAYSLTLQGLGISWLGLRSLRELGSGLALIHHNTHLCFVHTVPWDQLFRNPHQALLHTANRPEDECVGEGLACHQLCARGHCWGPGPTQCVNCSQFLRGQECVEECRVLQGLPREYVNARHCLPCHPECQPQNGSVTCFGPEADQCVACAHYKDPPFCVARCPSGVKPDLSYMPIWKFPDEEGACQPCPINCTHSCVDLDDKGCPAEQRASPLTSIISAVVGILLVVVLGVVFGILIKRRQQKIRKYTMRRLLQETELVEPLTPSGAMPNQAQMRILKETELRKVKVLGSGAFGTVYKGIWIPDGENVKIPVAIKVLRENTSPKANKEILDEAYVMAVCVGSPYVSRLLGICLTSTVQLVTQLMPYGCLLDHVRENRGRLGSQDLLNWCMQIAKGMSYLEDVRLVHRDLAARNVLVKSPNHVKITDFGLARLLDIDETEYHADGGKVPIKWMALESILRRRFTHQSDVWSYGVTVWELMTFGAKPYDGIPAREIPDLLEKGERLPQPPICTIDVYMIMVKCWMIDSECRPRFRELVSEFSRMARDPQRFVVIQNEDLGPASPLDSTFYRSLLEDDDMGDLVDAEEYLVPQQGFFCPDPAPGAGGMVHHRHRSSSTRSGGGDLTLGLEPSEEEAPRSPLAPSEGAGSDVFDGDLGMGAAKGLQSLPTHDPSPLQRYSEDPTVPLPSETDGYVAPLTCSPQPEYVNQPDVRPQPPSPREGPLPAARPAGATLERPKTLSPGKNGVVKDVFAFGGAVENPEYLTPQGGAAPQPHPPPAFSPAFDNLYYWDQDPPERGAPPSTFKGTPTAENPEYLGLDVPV
Method: as §1, §2, §3, §4, §5

NCI-H1781 cells = assay: Cellular proliferation in NCI-H1781 cells (CellTiter Glo); assay type: cell-based, human; details: 120 h, redosed after 72 h
Method: as §1, §6

[2] = Homo sapiens, BT-474, BT474 cells
[3] = Homo sapiens, NCI-H1781, NCI-H1781 cells

T1 sequence (P04626 23-1255): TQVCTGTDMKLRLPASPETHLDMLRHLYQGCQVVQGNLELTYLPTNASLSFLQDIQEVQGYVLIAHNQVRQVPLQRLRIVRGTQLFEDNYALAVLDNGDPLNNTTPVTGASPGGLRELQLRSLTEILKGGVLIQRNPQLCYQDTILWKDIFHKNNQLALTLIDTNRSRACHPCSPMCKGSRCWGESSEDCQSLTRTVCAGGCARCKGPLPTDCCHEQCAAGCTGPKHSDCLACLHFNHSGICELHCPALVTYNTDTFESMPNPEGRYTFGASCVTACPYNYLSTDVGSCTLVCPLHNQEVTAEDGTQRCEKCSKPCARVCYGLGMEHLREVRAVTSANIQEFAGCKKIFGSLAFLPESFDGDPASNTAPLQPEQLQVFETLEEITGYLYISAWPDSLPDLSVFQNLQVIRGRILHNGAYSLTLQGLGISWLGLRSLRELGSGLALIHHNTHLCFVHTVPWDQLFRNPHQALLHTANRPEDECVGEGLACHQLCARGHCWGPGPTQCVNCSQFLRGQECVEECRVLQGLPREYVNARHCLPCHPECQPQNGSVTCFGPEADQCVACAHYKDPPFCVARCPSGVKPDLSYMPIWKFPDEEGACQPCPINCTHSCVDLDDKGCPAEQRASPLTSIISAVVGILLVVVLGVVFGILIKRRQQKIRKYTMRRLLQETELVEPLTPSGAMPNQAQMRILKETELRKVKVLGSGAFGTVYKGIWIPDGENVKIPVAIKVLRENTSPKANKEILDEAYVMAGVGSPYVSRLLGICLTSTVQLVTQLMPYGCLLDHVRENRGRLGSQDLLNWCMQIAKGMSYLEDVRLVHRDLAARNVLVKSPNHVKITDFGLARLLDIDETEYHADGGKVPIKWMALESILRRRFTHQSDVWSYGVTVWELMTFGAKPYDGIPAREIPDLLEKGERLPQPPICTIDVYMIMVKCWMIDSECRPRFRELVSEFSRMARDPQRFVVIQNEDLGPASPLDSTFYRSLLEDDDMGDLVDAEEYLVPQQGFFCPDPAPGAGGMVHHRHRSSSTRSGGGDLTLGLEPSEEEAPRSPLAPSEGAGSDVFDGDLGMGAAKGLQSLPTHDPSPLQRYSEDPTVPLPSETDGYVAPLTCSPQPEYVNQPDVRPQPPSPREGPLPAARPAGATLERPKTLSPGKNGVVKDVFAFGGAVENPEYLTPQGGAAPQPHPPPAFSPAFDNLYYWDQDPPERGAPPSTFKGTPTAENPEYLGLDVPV

Row | SMILES | EC50 (HER2VC (G776delinsVC)) | GI50 (BT474 cells; [2]) | GI50 (NCI-H1781 cells; [3]) | GI50 (N87 cells; Homo sapiens) | further results
1 | C=CC(=O)N1[C@H](C)Cc2c(sc3ncnc(Nc4ccc(Oc5ccc(C)nc5)c(C)c4)c23)[C@H]1C (racemic) [Compound 166, 1-(6,8-trans-dimethyl-4-((3-methyl-4-((6-methylpyridin-3-yl)oxy)phenyl)amino)-5,8-dihydropyrido[4′,3′:4,5]thieno[2,3-d]pyrimidin-7(6H)-yl)prop-2-en-1-one] | – | – | – | – | EC50 [1]: < 100 nM
2 | Cc1ccc(Oc2ccc(Nc3ncnc4sc5c(c34)CC(C)N(C(=O)C=CCN(C)C)C5C)cc2C)cn1 (single isomer, unassigned) [Compound 161] | – | – | – | – | EC50 [1]: < 100 nM
3 | Cc1ccc(Oc2ccc(Nc3ncnc4sc5c(c34)CC(C)N(C(=O)C=CCN(C)C)C5C)cc2C)cn1 (single isomer, unassigned) [Compound 162] | – | – | – | – | EC50 [1]: 350 to 1000 nM
4 | C=CC(=O)N1CCc2c(sc3ncnc(Nc4ccc(Oc5cccnc5)c(Cl)c4)c23)C1 [Compound 6, 1-(4-((3-chloro-4-(pyridin-3-yloxy)phenyl)amino)-5,8-dihydropyrido[4′,3′:4,5]thieno[2,3-d]pyrimidin-7(6H)-yl)prop-2-en-1-one] | < 100 nM | – | – | – | –
5 | COc1cc(Nc2ncnc3sc4c(c23)CCN(C(=O)/C=C/CN(C)C)C4)ccc1Oc1ccccc1 [Compound 7, (E)-4-(dimethylamino)-1-(4-((3-methoxy-4-phenoxyphenyl)amino)-5,8-dihydropyrido[4′,3′:4,5]thieno[2,3-d]pyrimidin-7(6H)-yl)but-2-en-1-one] | < 100 nM | – | – | – | –
6 | Cc1cc(Nc2ncnc3sc4c(c23)CCN(C(=O)/C=C/CN2CCOCC2)C4)ccc1Oc1ccc2ncnn2c1 [Compound 12] | – | – | – | – | EC50 [1]: < 100 nM
7 | Cc1ccc(Oc2ccc(Nc3ncnc4sc5c(c34)CCN(C(=O)/C=C/CN3CC4CCC3C4)C5)cc2C)cn1 (centres unmarked) [Compound 14] | – | – | – | – | EC50 [1]: < 100 nM
8 | Cc1ccc(Oc2ccc(Nc3ncnc4sc5c(c34)CN(C(=O)/C=C/CN(C)C)CC5)cc2C)cn1 [Compound 108, (E)-4-(Dimethylamino)-1-(4-((3-methyl-4-((6-methylpyridin-3-yl)oxy)phenyl)amino)-7,8-dihydropyrido[3′,4′:4,5]thieno[2,3-d]pyrimidin-6(5H)-yl)but-2-en-1-one] | – | < 100 nM | < 100 nM | < 100 nM | –
9 | Cc1ccc(Oc2ccc(Nc3ncnc4sc5c(c34)CCN(C(=O)/C=C/CN3CC4CC4(CO)C3)C5)cc2C)cn1 (centres unmarked) [Compound 118] | – | < 100 nM | < 100 nM | < 100 nM | –
10 | Cc1cc(Nc2ncnc3sc4c(c23)CCN(C(=O)/C=C/CN(C)C)C4)ccc1Oc1ccn2ccnc2c1 [Compound 126, (E)-4-(dimethylamino)-1-(4-((4-(imidazo[1,2-a]pyridin-7-yloxy)-3-methylphenyl)amino)-5,8-dihydropyrido[4′,3′:4,5]thieno[2,3-d]pyrimidin-7(6H)-yl)but-2-en-1-one] | – | < 100 nM | – | < 100 nM | GI50 (NCI-H1781 cells; Homo sapiens, NCI-H1781 cells): < 100 nM
11 | Cc1nc2cc(Oc3ccc(Nc4ncnc5sc6c(c45)CCN(C(=O)/C=C/CN(C)C)C6)cc3C)ccn2n1 [Compound 127, (E)-4-(dimethylamino)-1-(4-((3-methyl-4-((2-methyl-[1,2,4]triazolo[1,5-a]pyridin-7-yl)oxy)phenyl)amino)-5,6-dihydropyrido[4′,3′:4,5]thieno[2,3-d]pyrimidin-7(8H)-yl)but-2-en-1-one] | – | < 100 nM | – | < 100 nM | GI50 (NCI-H1781 cells; Homo sapiens, NCI-H1781 cells): 100 to 350 nM
12 | COc1ccc(Oc2ccc(Nc3ncnc4sc5c(c34)C(C)CN(C(=O)/C=C/CN(C)C)C5)cc2C)cn1 (centres unmarked) [Compound 152, (E)-4-(dimethylamino)-1-(4-((4-((6-methoxypyridin-3-yl)oxy)-3-methylphenyl)amino)-5-methyl-5,8-dihydropyrido[4′,3′:4,5]thieno[2,3-d]pyrimidin-7(6H)-yl)but-2-en-1-one] | < 100 nM | < 100 nM | < 100 nM | < 100 nM | –
13 | Cc1cc(Nc2ncnc3sc4c(c23)CCN(C(=O)/C=C/CN(C)C)C4)ccc1Oc1ccc(N(C)C)nc1 [Compound 158, (E)-4-(dimethylamino)-1-(4-((4-((6-(dimethylamino)pyridin-3-yl)oxy)-3-methylphenyl)amino)-5,8-dihydropyrido[4′,3′:4,5]thieno[2,3-d]pyrimidin-7(6H)-yl)but-2-en-1-one] | < 100 nM | < 100 nM | – | < 100 nM | GI50 (NCI-H1781 cells; Homo sapiens, NCI-H1781 cells): < 100 nM
14 | COc1ccc(Oc2ccc(Nc3ncnc4sc5c(c34)CCN(C(=O)/C=C/CN3CCOCC3)C5)cc2C)cn1 [Compound 164] | < 100 nM | < 100 nM | 100 to 350 nM | < 100 nM | –
15 | Cc1ccc(Oc2ccc(Nc3ncnc4sc5c(c34)C(C)CN(C(=O)/C=C/CN3CCOCC3)C5)cc2C)cn1 (centres unmarked) [Compound 174, (E)-1-(5-Methyl-4-((3-methyl-4-((6-methylpyridin-3-yl)oxy)phenyl)amino)-5,6-dihydropyrido[4′,3′:4,5]thieno[2,3-d]pyrimidin-7(8H)-yl)-4-morpholinobut-2-en-1-one] | < 100 nM | – | 100 to 350 nM | < 100 nM | –

Now from value to molecule, other results behind:

Row | EC50 (HER2VC (G776delinsVC)) | GI50 (BT474 cells; [2]) | GI50 (NCI-H1781 cells; [3]) | SMILES | GI50 (N87 cells; Homo sapiens) | further results
16 | 100 to 350 nM | – | – | Cc1ccc(Oc2ccc(Nc3ncnc4sc5c(c34)CN(C(=O)C=CCN(C)C)C5C)cc2C)cn1 (single isomer, unassigned) [Compound 170] | – | GI50 (BT474 cells; BT474 cells): 100 to 350 nM; GI50 (N87 cells): 100 to 350 nM; GI50 (NCI-H1781 cells; NCI-H1781 cells): 350 to 1000 nM
17 | – | < 100 nM | < 100 nM | Cc1ccc(Oc2ccc(Nc3ncnc4sc5c(c34)CCN(C(=O)/C=C/CN3CCC(O)C(C)(C)C3)C5)cc2C)cn1 (centres unmarked) [Compound 114] | < 100 nM | –
18 | – | < 100 nM | < 100 nM | Cc1ccc(Oc2ccc(Nc3ncnc4sc5c(c34)CCN(C(=O)/C=C/CN3CC[C@H](F)C3)C5)cc2C)cn1 [Compound 124] | < 100 nM | –
19 | – | < 100 nM | < 100 nM | Cc1cc(Nc2ncnc3sc4c(c23)CN(C(=O)/C=C/CN(C)C)C4)ccc1Oc1ccn2ncnc2c1 [Compound 130, (E)-1-(4-((4-([1,2,4]Triazolo[1,5-a]pyridin-7-yloxy)-3-methylphenyl)amino)-5H-pyrrolo[3′,4′:4,5]thieno[2,3-d]pyrimidin-6(7H)-yl)-4-(dimethylamino)but-2-en-1-one] | < 100 nM | –
